Assay results taken from patent US4581359A, “Pharmacological treatments with N-7-substituted derivatives of theophylline” (priority 1984, dated 1986).
Where “and” joins values, the source holds several entries; their conditions need not be identical. Equal values may be shown once. Read-outs that look alike come from different tables or passages of the source.

Legend:
[1] = cited from earlier work
[2] = Concomitant dyphylline and aminophylline in two horses: plasma concentration, blood pressure, pulse (Example 3); conditions: horse, plasma, iv, 20 mg/kg, dyphylline peak plasma concentration, 20 mg/kg bolus
Method: Two horses were administered dyphylline and aminophylline concomitantly.
The second horse was given a bolus injection of dyphylline (20 mg/kg as 100 mg/ml solution in D5W) over 15 seconds into the jugular vein. Aminophylline infusion (10 mg/kg dissolved in one liter of D5W) was started immediately and administered over 20 minutes.

[3] = cited from earlier work; remark: listed apart in the source
[4] = Literature: pharmacokinetics of dyphylline and related derivatives in humans; conditions: human, in vivo; for Vd/F: po, analysis of Gisclon oral data
[5] = Dyphylline 20 min intravenous infusion in two healthy male subjects: pharmacokinetics, blood pressure, pulse (Example 2); type: in vivo, human; conditions: for V2, volume of peripheral compartment: Vd - V1; for Css, steady state: infusion rate/V1 Ke1, predicted only; for half-life / k el / Vd: human, in vivo, iv, 1000 mg; for half-life: 0.693/β
Method: 1000 mg of the drug dyphylline was infused over twenty minutes in two heathy male patients to determine the volume of distribution of the central compartment.
A physician evaluated two male volunteer subjects for their drug and disease histories. […] The subjects fasted from 10:00 p.m. before dosing at 7:30 a.m. the following day until four hours post dosing, after which food (except xanthines; i.e. chocolate, tea, coffee) and beverages were allowed ad lib.
A dose of 1,000 mg of dyphylline (Neothylline®) diluted in normal saline (0.9 percent) was administered at a rate of 50 mg/min via a constant infusion pump for twenty minutes. Blood pressure and electrocardiogram readings were monitored by a physician.
Whole blood (7 cc) was collected from each subject at time zero just prior to dosing and at 10, 15, 20, 30, 40 minutes and 1.0, 1.5, 2.0, 3.0, 4.0, 5.0, 6.0, 7.0, 8.0, 12.0, and 16.0 hours post dosing with a syringe. The heparin lock was cleared of all heparin solution and the lock filled with subject blood by using a disposable syringe prior to sampling. Each sample was then collected in a new disposable syringe and immediately transferred to a heparinized vacuum tube. After each sampling, the heparin lock was flushed and filled with heparin (10 u/ml). Once samples had been transferred to vacuum tubes, they were inverted several times, then stored in crushed ice until centrifuged and the plasma collected. Plasma samples were then frozen until assayed.
Plasma and urine samples were assayed by high-pressure liquid chromatography (HPLC) as reported by Gisclon, in the article mentioned above.
Plasma samples were prepared for assay by mixing 0.5 ml of plasma with 0.5 ml of acetonitrile containing β-hydroxyethyltheophylline (40 mcg/ml) as internal standard, and vortexed 15 seconds. The plasma sample with its protein precipitate was then centrifuged for 15 minutes at 2800 rpm and 5-40 μl injected into the HPLC.
FIGS. 5 and 6 show dyphylline plasma concentration vs. time curves for the subjects. Solid circles are the data points which were obtained by duplicate analysis of each sample by different analysts and the solid line represents the predicted values obtained after fitting the data with an Autoan computer package which uses CSTRIP and NONLIN (John G. Wagner, Fundamentals of Clinical Pharmacokinetics, Drug Intelligence Publications,Inc., Hamilton, Ill., 1975). This program determined that the data from time zero to 480 min. (8 hr) for subject one and 420 min. (7 hr) for subject two were compatible with a two compartment open model with zero order infusion for 20 minutes and first order elimination from the central compartment only. The fit to the data was quite good with r^2 =0.996 for subject one and 0.997 for subject two. The average percent deviation for the predicted lines from the data points was 7.7 percent and the estimated concentrations averaged 98.9 percent of the observed concentrations.

[6] = cited from earlier work; remark: listed apart in the source
[7] = cited from earlier work; remark: listed apart in the source
in vivo = conditions: rabbit
Method: All experiments of this example were performed using female New Zealand White rabbits. These rabbits (2.4-3.6 kg) were housed in a controlled environment and allowed free access to water and food.
Before dosing with drug the rabbit ear hair was clipped and treated with hair remover lotion (sold under the trademark NAIR, Carter-Wallace, Inc., New York, N.Y.), a catheter (Quick-Cath, 20 Ga, Travenol Laboratories, Inc., Deerfield, Ill.) and sterile intermittent infusion plug were then inserted in the rabbit's ear vein for infusion. […] For each separate administration of theophylline, a suitable amount of aminophylline (40 mg/kg) was dissolved in distilled water to make 10 ml injectable solution which was administered into a rabbit's ear vein as a continuous infusion over a period of 15 minutes.
Blood samples were collected from an ear vein (in the opposite ear from the infusion) at predetermined time intervals. Before collecting each sample, the rabbit ear was treated topically with xylene to dilate the ear vein for convenient sample collection. Immediately after each blood sample was drawn, 0.4 ml of blood was transfered to the centrifuge tube and 0.4 ml of acetronitrile with appropriate internal standard was added to precipitate the protein and extract drug components. After vortexing well, the blood acetonitrile mixture was centrifuged at 3000×G for ten minutes, and 10 μl of supernatent solution was then injected into the HPLC.
The post infusion data of theophylline were fitted to a two-compartment open model using the same procedure as described above. Although samples were collected while infusion of dyphylline was continuing, only post infusion data were used for dyphylline pharmacokinetic analysis.

[8] = intravenous, per day per 70 kg person, Zuidema

Question: For Cn1c(=O)c2c(ncn2CC(O)CO)n(C)c1=O (stereo not drawn) [dyphylline, dihydroxypropyl theophylline], which adverse effect ([1]; 400 mg intravenous, about 48 mcg/ml, Zuidema 1981) is on record?
Answer: no adverse effect

Question: And the plasma concentration ([1]; 400 mg intravenous, very short time, Zuidema 1981)?
Answer: about 48 mcg/ml

Question: And the protein binding ([1]; Gisclon et al.)?
Answer: may bind nonlinearly to protein

Question: What about the “intravenous dyphylline accounted for in the urine” value ([1]; Lawyer) of the same compound?
Answer: forty-four

Question: What about the peak plasma concentration ([1]; intravenous over ten minutes, one patient, Lawyer) of the same compound?
Answer: 17.4 µg/mL

Question: And the “conversion to theophylline in the body” value ([1]; literature)?
Answer: not converted to theophylline in the body

Question: What about the tissue distribution ([1]; literature) of the same compound?
Answer: penetrate the central nervous system, to infiltrate heart tissue and to distribute to lung tissue

Question: What about the initial distribution volume ([1]; person, 73 kg, Lawyer) of the same compound?
Answer: 26.2 L

Question: And the “total or steady state volume of distribution” value ([1]; person, 73 kg, Lawyer)?
Answer: 32.1 L

Question: What about the Cmax ([2]; first value, presumably first horse) of the same compound?
Answer: 46 µg/mL

Question: And the Cmax ([2]; second value, presumably second horse)?
Answer: 88 µg/mL

Question: What about the “pharmacokinetics at high dose” value ([3]; Poynor) of the same compound?
Answer: may produce nonlinear pharmacokinetics

Question: And the “concentration not toxic in dogs” value ([3]; dogs)?
Answer: 100 µg/mL

Question: What about the Vd ([4]; from Simons et al., read-out: Vd, range over dosage forms) of the same compound?
Answer: 0.58 to 0.98 L/kg

Question: What about the Vd/F ([4]; 77.0 kg, complete bioavailability, read-out: central compartment volume) of the same compound?
Answer: ~52 L

Question: And the Vd/F ([4]; 77.0 kg, complete bioavailability, read-out: total volume of distribution)?
Answer: ~67 L

Question: And the Vd/F ([4]; 84 percent bioavailability, read-out: Vc)?
Answer: ~0.6 L/kg

Question: And the Vd/F ([4]; 84 percent bioavailability, read-out: Vd)?
Answer: ~0.73 L/kg

Question: What about the Vd/F ([4]; bioavailability 84 percent, read-out: central compartment volume) of the same compound?
Answer: ~44 L

Question: And the Vd/F ([4]; bioavailability 84 percent, read-out: total volume of distribution)?
Answer: ~56 L

Question: What about the Vd/F ([4]; total bioavailability, read-out: Vc) of the same compound?
Answer: ~0.68 L/kg

Question: And the Vd/F ([4]; total bioavailability, read-out: Vd total)?
Answer: ~0.87 L/kg

Question: What about the adverse side effects ([5]; 1000 mg over 20 min, two subjects) of the same compound?
Answer: No adverse side effects were observed or reported

Question: What about the “Blood pressure, diastolic, Subject Two” value ([5]; 10 M, 15 M, 20 M (end), 30 M, 40 M, 60 M, 90 M, predose 125/80) of the same compound?
Answer: 80 mm Hg and 85 mm Hg and 75 mm Hg

Question: What about the K12 ([5]; Subject 1, 1000 mg over 20 min) of the same compound?
Answer: 1.94 h⁻¹

Question: What about the K21 ([5]; Subject 1, 1000 mg over 20 min) of the same compound?
Answer: 2.50 h⁻¹

Question: What about the α ([5]; Subject 1, 1000 mg over 20 min) of the same compound?
Answer: 4.73 h⁻¹

Question: And the “V2, volume of peripheral compartment” value ([5]; Subject 1)?
Answer: 30.28 L

Question: And the “Css, steady state” value ([5]; Subject 1)?
Answer: 142.56 µg/mL

Question: What about the K12 ([5]; Subject 2, 1000 mg over 20 min) of the same compound?
Answer: 4.02 h⁻¹

Question: What about the K21 ([5]; Subject 2, 1000 mg over 20 min) of the same compound?
Answer: 4.39 h⁻¹

Question: What about the α ([5]; Subject 2, 1000 mg over 20 min) of the same compound?
Answer: 8.83 h⁻¹

Question: What about the “V2, volume of peripheral compartment” value ([5]; Subject 2) of the same compound?
Answer: 25.45 L

Question: What about the “Css, steady state” value ([5]; Subject 2) of the same compound?
Answer: 142.13 µg/mL

Question: What about the “blood pressure and pulse rate” value ([5]; during the study) of the same compound?
Answer: essentially unchanged

Question: What about the half-life ([5]; Subject 1) of the same compound?
Answer: 2.11 h

Question: And the k el ([5]; Subject 1, 1000 mg over 20 min, read-out: Ke1 (converted))?
Answer: 0.000172 s⁻¹

Question: What about the k el ([5]; Subject 1, 1000 mg over 20 min, read-out: β (converted)) of the same compound?
Answer: 9.17e-05 s⁻¹

Question: What about the Vd ([5]; Subject 1, read-out: V1) of the same compound?
Answer: 33.9 L

Question: And the Vd ([5]; Subject 1, read-out: V3 (footnote: Vd, total volume of distribution))?
Answer: 64.2 L

Question: What about the half-life ([5]; Subject 2) of the same compound?
Answer: 1.66 h

Question: And the k el ([5]; Subject 2, 1000 mg over 20 min, read-out: Ke1 (converted))?
Answer: 0.000233 s⁻¹

Question: And the k el ([5]; Subject 2, 1000 mg over 20 min, read-out: β (converted))?
Answer: 0.000117 s⁻¹

Question: What about the Vd ([5]; Subject 2, read-out: V1) of the same compound?
Answer: 25.1 L

Question: What about the Vd ([5]; Subject 2, read-out: V3 (footnote: Vd, total volume of distribution)) of the same compound?
Answer: 50.6 L

Question: And the Vd ([5]; two subjects, range, read-out: volume of the central compartment per kg)?
Answer: 0.35 to 0.47 L/kg

Question: What about the Vd ([5]; two subjects, read-out: total volume of distribution, average) of the same compound?
Answer: ~0.8 L/kg

Question: And the Vd ([5]; two subjects, read-out: volume of the central compartment)?
Answer: 25 to 34 L

Question: What about the Vd ([5]; two subjects, read-out: volume of the central compartment, average) of the same compound?
Answer: ~0.41 L/kg

Question: What about the “average volume of distribution” value ([6]; 25 mg/kg) of the same compound?
Answer: 1.01 L/kg

Question: And the “toxicity at 30 to 50 mcg/ml” value ([6]; rabbit, in vivo)?
Answer: not toxic

Question: And the “lowest therapeutic response toxic level in steady state” value ([7]; blood, calculated by Zuidema from data of Svedmyr)?
Answer: 90 µg/mL

Question: And the “calculated probable dosage to produce 40 mcg/ml in blood” value [7, 8]?
Answer: 13.7 gm

Question: And the “calculated probable dosage to produce 90 mcg/ml in blood” value [7, 8]?
Answer: 30.8 gm

Question: And the “effect of dyphylline on half-life of theophylline” value (in vivo)?
Answer: does not appear to alter the half-life of theophylline

Question: And the “plasma concentration of dyphylline not toxic in the presence of about 100 mcg/ml theophylline” value (in vivo)?
Answer: about 600 mcg/ml

Question: What about the Vd (in vivo; iv, 666.7 mg/kg, average apparent volume of distribution of dyphylline administered with theophylline) of the same compound?
Answer: 0.41 L/kg
